Where a name gives a salt, the structure may show the parent alone. Read-outs that look alike come from different tables or passages of the source. Bounds are passed on as bounds.

Experiment [1] addresses T1, human inducible NOS (hiNOS) (Homo sapiens, UniProt P35228).
T1 construct: made in house; host or cells: insect cells, baculovirus vector
As to the kind of experiment: Citrulline Assay for Nitric Oxide Synthase, hiNOS. The class given is biochemical. To be noted: recombinant human inducible NOS, 37° C., 15 minutes. As for the experimental part: (§1) Citrulline Assay for Nitric Oxide Synthase
(§2) Nitric oxide synthase activity was measured by monitoring the conversion of L-[2,3-3H]-arginine to L-[2,3-3H]-citrulline (1,2). The cDNA for human inducible NOS (hiNOS) was isolated from a lcDNA library made from RNA extracted from a colon sample from a patient with ulcerative colitis; human endothelial constitutive NOS (hecNOS) was isolated from a lcDNA library made from RNA extracted from human umbilical vein endothelial cells (HUVEC); and human neuronal constitutive NOS (hncNOS) was isolated from a lcDNA library made from RNA extracted from human cerebellum from a cadaver. The recombinant enzymes were expressed in insect cells using a baculovirus vector. Enzyme activity was isolated from cell extracts and partially purified by DEAE-Sepharose chromatography (2). […] For constitutive NOS, calmodulin was included at a final concentration of 40-100 nM. Following incubation at 37° C. for 15 minutes, the reaction was terminated by addition of 300 μL cold buffer containing 10 mM EGTA, 100 mM HEPES (pH5.5) and 1.0 mM L-citrulline. The [3H]-citrulline was separated by chromatography on Dowex 50W X-8 cation exchange resin and radioactivity quantified with a liquid scintillation counter.

For experiment [2], the target named is T2, human endothelial constitutive NOS (hecNOS) (Homo sapiens, UniProt P29474).
T2 construct: made in house; host or cells: insect cells, baculovirus vector
Description: Citrulline Assay for Nitric Oxide Synthase, hecNOS. To be noted: recombinant human endothelial constitutive NOS, 37° C., 15 minutes, calmodulin 40-100 nM. The class given is biochemical. As for the experimental part:
as §1, §2

The target in experiment [3] is T3, human neuronal constitutive NOS (hncNOS) (Homo sapiens, UniProt P29475).
T3 construct: made in house; host or cells: insect cells, baculovirus vector
Description: biochemical. Particulars: recombinant human neuronal constitutive NOS, 37° C., 15 minutes, calmodulin 40-100 nM. As for the experimental part: as §1, §2

A further experiment has as its target T4, RAW cell miNOS (Mus musculus, UniProt P29477).
T4 construct: in the presence of LPS to induce NOS; endogenous in cells; host or cells: RAW 264.7 cells, LPS-induced
Description: Raw Cell Nitrite Assay. Particulars: RAW 264.7 cells, LPS-induced, L-arginine 30 μM, nitrite production 1 h at 37° C. The class given is cell-based. As for the experimental part:
RAW 264.7 cells are plated to confluency on a 96-well tissue culture plate grown overnight (17 h) in the presence of LPS to induce NOS. […] The media is removed from each well and the cells are washed twice with Krebs-Ringers-Hepes (25 mM, pH 7.4) with 2 mg/ml glucose. The cells are then placed on ice and incubated with 50 μL of buffer containing L-arginine (30 μM) ± inhibitors for 1 h. The assay is initiated by warming the plate to 37° C. in a water bath for 1 h. […] To terminate the cellular assay, the plate of cells is placed on ice and the nitrite-containing buffer removed and analyzed for nitrite using a previously published fluorescent determination for nitrite. All values are the average of triplicate wells and are compared to a background-subtracted induced set of cells (100% value).

Another experiment deals with Plasma Nitrites/Nitrates. Description: In Vivo Assay: plasma nitrites/nitrates, Endotoxin in Rat Model. The arrangement: species or system Rats. Particulars: 10 mg/kg p.o., 1 hour prior to LPS 10 mg/kg i.p., plasma nitrites 5 hours post-treatment. As for the experimental part:
In Vivo Assay Rats were treated with an intraperitoneal injection of 10 mg/kg of endotoxin (LPS) with or without oral administration of the nitric oxide synthase inhibitors administered 1 hour prior to LPS. Plasma nitrites were measured 5 hours post-treatment.

For `C[C@@H]1CC(=N)N[C@H]1Cc1ccccc1` (relative stereo) [Example 64, (±) (trans) 4-methyl-5-(phenylmethyl)pyrrolidin-2-imine, Monohydrochloride], the IC50 turned out to be 3 µM in experiment [1], 458 µM in experiment [2], 8.3 µM in experiment [3] (read-out: IC50 hncNOS) and 5.4 µM on RAW cell miNOS (read-out: IC50 RAW cell miNOS). The “% Inhibition of Plasma Nitrites/Nitrates” value with Plasma Nitrites/Nitrates is given as 35%.

As for `N=C1CCCCC(Cc2ccccc2)N1` (single isomer, unassigned; (+)) [Example 14, (+)-hexahydro-7-(phenylmethyl)-1H-azepin-2-imine, Monohydrochloride], the IC50 in experiment [1] is 62 µM; in experiment [2], 651 µM; in experiment [3] (read-out: IC50 hncNOS), 30 µM; on RAW cell miNOS (read-out: IC50 RAW cell miNOS) it was 170 µM.

`N=C1CCCCC(Cc2ccccc2)N1` (single isomer, unassigned; (-)) [Example 16, (-)-hexahydro-7-(phenylmethyl)-1H-azepin-2-imine, Monohydrochloride]: the half-inhibitory concentration (IC50) was 3.6 µM in experiment [1], 599 µM in experiment [2], 14 µM in experiment [3] (read-out: IC50 hncNOS) and 1.8 µM at RAW cell miNOS (read-out: IC50 RAW cell miNOS).

Turning to `Cl.N=C1CCCCC(Cc2ccccc2)N1` (stereo not shown) [Example 5, Hexahydro-7-(phenylmethyl)-1H-azepin-2-imine, Monohydrochloride], the IC50 in experiment [1] was 6.2 µM; in experiment [2], 792 µM; in experiment [3] (read-out: IC50 hncNOS), 15 µM; on RAW cell miNOS (read-out: IC50 RAW cell miNOS), 66 µM. For the same compound, in the experiment on Plasma Nitrites/Nitrates, the “% Inhibition of Plasma Nitrites/Nitrates” value is 37%.

With `N=C1CCCCC(CC2CCCCC2)N1` (stereo not shown) [Example 9, 7-(cyclohexylmethyl)hexahydro-1H-azepin-2-imine, Monohydrochloride], the IC50 in experiment [1] is 9.7 µM; in experiment [2], 575 µM; in experiment [3] (read-out: IC50 hncNOS), 74 µM; at RAW cell miNOS (read-out: IC50 RAW cell miNOS), > 100 µM.

Regarding `N=C1CCCCC(CC2CO2)N1` (stereo not shown) [Example 21, Hexahydro-7-[(oxiran-2-yl)methyl]-1H-azepin-2-imine, Monohydrochloride], the IC50 came out at 8.4 µM in experiment [3] (read-out: IC50 hncNOS) and 28 µM at RAW cell miNOS (read-out: IC50 RAW cell miNOS).

Regarding `N=C1CCCCC(C/C=C/c2ccccc2)N1` (stereo not shown) [Example 34, Hexahydro-7-(3-phenyl-2-propenyl)-1H-azepin-2-imine, Monohydrochloride], the half-maximal inhibitory concentration (IC50) in experiment [1] came out at 8.1 µM; in experiment [2], 183 µM; in experiment [3] (read-out: IC50 hncNOS), 24 µM.

With `N=C1CCCCC(CCCc2ccccc2)N1` (stereo not shown) [Example 37, Hexahydro-7-(3-phenylpropyl)-1H-azepin-2-imine, Monohydrochloride], the 50% inhibitory concentration (IC50) in experiment [1] was 19 µM; in experiment [2] it was 836 µM; in experiment [3] (read-out: IC50 hncNOS), 118 µM; on RAW cell miNOS (read-out: IC50 RAW cell miNOS), 80 µM.

On to `NC1=NC(Cc2ccccc2)CCC1` (stereo not shown) [Example 94, 6-(phenylmethyl)piperidin-2-imine, Monohydrochloride], for which the results for the IC50 (in experiment [3] (IC50 hncNOS); against RAW cell miNOS (IC50 RAW cell miNOS)) were 0.71 µM and 7.9 µM, respectively.

In the case of `N=C1CCCC(CC2CCCCC2)N1` (stereo not shown) [Example 95, 6-(cyclohexylmethyl)piperidin-2-imine, Monohydrochloride], the concentration for half-maximal inhibition (IC50) was determined as 5.9 µM in experiment [1], 375 µM in experiment [2] and 28 µM in experiment [3] (read-out: IC50 hncNOS).

On to `N=C1CCCCC(CC2CC(c3ccccc3)=NO2)N1` (stereo not shown) [Example 191, 7-[(4,5-dihydro-3-phenylisoxazolyl-5-yl)methyl]hexahydro-1H-azepine-2-imine, Monotrifluoroacetic Acid Salt], for which, at RAW cell miNOS (read-out: IC50 RAW cell miNOS), the concentration for half-maximal inhibition (IC50) was found to be 45 µM.

As usually defined, the IC50 is the midpoint of a concentration-inhibition curve.
